Consider 9 compounds from DBAASP.

In brackets after ≈: the same amount, converted by molar mass.

Test systems include Escherichia coli K91BK; Escherichia coli JM109; Staphylococcus aureus; Bacillus cereus AS1.126; Escherichia coli AS1.349; Escherichia coli BL21AI.
Holding throughout (experiment): ≥ marks a high value that may be exact or a test limit, other limits are often not marked, values filed in µg/mL are converted to µM
The test system of assay [1] is Bacillus anthracis Sterne 34F2.
Assay [2] deals with Bacillus subtilis var. niger ATCC 9372.
For assay [3], the system named is Staphylococcus aureus ATCC 6538P.
The test system of assay [4] is Bacillus subtilis KCTC 1918.
Assay [5] deals with Streptococcus pyogenes KCTC 3096.
Assay [6] has as its system Pseudomonas aeruginosa KCTC 1637.
Assay [7] has as its system Escherichia coli KCTC 1682.
Assay [8] concerns Salmonella typhimurium KCTC 1926.
Assay [9] concerns Staphylococcus aureus KCTC 1621.
In assay [10] the test system is Escherichia coli ATCC 43827.
Assay [11] relates to Escherichia coli ATCC 25922.
For assay [12], the system named is Pseudomonas aeruginosa ATCC 27853.
The subject of assay [13] is Staphylococcus aureus ATCC 25923.
Assay [14] deals with Escherichia coli ATCC 11775.
Assay [15] deals with Enterococcus faecalis ATCC 29212.
The test system of assay [16] is Mycobacterium tuberculosis H37Rv.
Assay [17] has as its system Streptococcus pneumoniae ATCC 49619.
Assay [18] concerns Enterobacter cloacae CGMCC 1.58.
In assay [19] the test system is Enterococcus faecalis CGMCC 1.595.
For assay [20], the system named is Enterococcus faecium CGMCC 1.2334.
In assay [21] the test system is Lactococcus lactis AS1.1690.
Assay [22] deals with Klebsiella aerogenes CGMCC 1.876.
Assay [23] has as its system Pseudomonas aeruginosa CGMCC 1.860.
Assay [24] deals with Staphylococcus aureus AS1.72.
Assay [25] concerns Klebsiella pneumoniae subsp. pneumoniae CGMCC 1.176.
The test system of assay [26] is Micrococcus luteus ATCC 10240.

Take `CC[C@H](C)[C@H](NC(=O)CNC(C)=O)C(=O)NCC(=O)N[C@@H](CCCCN)C(=O)N[C@@H](Cc1ccccc1)C(=O)N[C@@H](CC(C)C)C(=O)N[C@@H](CCCCN)C(=O)N[C@@H](CCCCN)C(=O)N[C@@H](C)C(=O)N[C@@H](CCCCN)C(=O)N[C@@H](CCCCN)C(=O)N[C@@H](Cc1ccccc1)C(=O)NCC(=O)N[C@@H](CCCCN)C(=O)N[C@@H](C)C(=O)N[C@@H](Cc1ccccc1)C(=O)N[C@H](C(=O)N[C@@H](CCCCN)C(=O)N[C@H](C(=O)N[C@@H](CC(C)C)C(=O)N[C@@H](CCCCN)C(=O)N[C@@H](CCCCN)C(N)=O)[C@@H](C)CC)C(C)C` [GIGKFLKKAKKFGKAFVKILKK]: the MIC in assay [1] was 25 µM (≈ 63 µg/mL); against Escherichia coli K91BK, ≥ 100 µM; in assay [2] it was 1.56 µM (≈ 3.93 µg/mL).
With `CC[C@H](C)[C@H](NC(=O)[C@H](C)NC(=O)[C@H](CC(C)C)NC(=O)[C@H](CS)NC(=O)[C@H](CCCN=C(N)N)NC(=O)[C@H](C)NC(=O)[C@H](C)NC(=O)[C@H](CS)NC(=O)[C@@H](N)CC(C)C)C(=O)NCC(=O)N[C@@H](CCCN=C(N)N)C(=O)N[C@@H](CCCN=C(N)N)C(N)=O` [LCAARCLAIGRR], the values for the minimal inhibitory concentration (MIC) (in the assay on Escherichia coli JM109; with Staphylococcus aureus; in assay [3]) were 24.6 µM (≈ 32 µg/mL), > 49.1 µM and 5.76 µM (≈ 7.49 µg/mL), respectively.
As for `CC[C@H](C)[C@H](NC(=O)[C@@H](NC(=O)[C@@H](N)CCCN=C(N)N)[C@@H](C)CC)C(=O)N[C@@H](CC(=O)O)C(=O)N[C@@H](CC(C)C)C(=O)N[C@@H](CC(C)C)C(=O)N[C@@H](C)C(=O)N[C@@H](CCCN=C(N)N)C(=O)N[C@H](C(=O)N[C@@H](CCCN=C(N)N)C(=O)N[C@@H](CCCN=C(N)N)C(=O)N1CCC[C@H]1C(=O)N[C@@H](CCC(N)=O)C(=O)N[C@@H](CCCCN)C(=O)N1CCC[C@H]1C(=O)N[C@@H](CCCCN)C(=O)N[C@@H](Cc1ccccc1)C(=O)N[C@H](C(=O)N[C@H](C(=O)N[C@H](C(=O)N[C@@H](Cc1c[nH]c2ccccc12)C(=O)N[C@H](C(=O)N[C@@H](CCCN=C(N)N)C(=O)O)C(C)C)C(C)C)[C@@H](C)O)C(C)C)C(C)C` [RIIDLLARVRRPQKPKFVTVWVR], the MIC in assay [4] is 1.56 µM (≈ 4.44 µg/mL); in [5] it was 1.56 µM (≈ 4.44 µg/mL); in assay [6], 1.56 µM (≈ 4.44 µg/mL); in assay [7], 3.12 µM (≈ 8.9 µg/mL); in assay [8], 1.56 µM (≈ 4.44 µg/mL); in assay [9], 3.12 µM (≈ 8.9 µg/mL).
As to `CSCC[C@H](NC(=O)[C@H](CCCN=C(N)N)NC(=O)[C@H](Cc1c[nH]c2ccccc12)NC(=O)[C@H](CCC(N)=O)NC(=O)[C@H](Cc1c[nH]c2ccccc12)NC(=O)[C@H](CCCN=C(N)N)NC(=O)[C@@H](N)CCCN=C(N)N)C(=O)N[C@@H](CCCCN)C(=O)N[C@@H](CCCCN)C(=O)N[C@@H](CC(C)C)C(=O)NCC(=O)O` [RRWQWRMKKLG], the MIC in assay [10] was 7 µM (≈ 10.8 µg/mL); in assay [11] it was 15 µM (≈ 23.2 µg/mL); in assay [12] it was 15 µM (≈ 23.2 µg/mL); in [13], 30 µM (≈ 46.3 µg/mL); in assay [14], 15 µM (≈ 23.2 µg/mL).
In the case of `CSCC[C@H](NC(=O)[C@H](CCCN=C(N)N)NC(=O)[C@H](Cc1c[nH]c2ccccc12)NC(=O)[C@H](CCC(N)=O)NC(=O)[C@H](Cc1c[nH]c2ccccc12)NC(=O)[C@H](CCCN=C(N)N)NC(=O)[C@H](CCCN=C(N)N)NC(=O)[C@H](C)NC(=O)[C@H](CCCCN)NC(=O)[C@@H](N)Cc1ccccc1)C(=O)N[C@@H](CCCCN)C(=O)N[C@@H](CCCCN)C(=O)N[C@@H](CC(C)C)C(=O)NCC(=O)N[C@@H](C)C(=O)O` [FKARRWQWRMKKLGA], the minimum inhibitory concentration (MIC) in assay [10] was 12 µM (≈ 23.5 µg/mL); in [11], 24 µM (≈ 47.1 µg/mL); in assay [12], 48 µM (≈ 94.2 µg/mL); in assay [13], 48 µM (≈ 94.2 µg/mL); in assay [14], ≥ 48 µM; in assay [15], 48 µM (≈ 94.2 µg/mL).
As to `NCCCC[C@H](NC(=O)CNC(=O)CNC(=O)[C@H](CCCCN)NC(=O)[C@H](CCCCN)NC(=O)[C@H](Cc1cnc[nH]1)NC(=O)[C@H](CS)NC(=O)[C@H](CCC(N)=O)NC(=O)[C@H](CCCCN)NC(=O)[C@@H](N)Cc1ccc(O)cc1)C(=O)N[C@@H](CCCCN)C(=O)NCC(=O)N[C@@H](CO)C(=O)NCC(N)=O` [YKQCHKKGGKKGSG], the minimum inhibitory concentration (MIC) in assay [16] and in [17] was ≥ 300 µM in each case.
For `NC(N)=NCCC[C@H](NC(=O)[C@H](CCCN=C(N)N)NC(=O)[C@H](Cc1c[nH]c2ccccc12)NC(=O)[C@H](Cc1ccccc1)NC(=O)[C@H](CCCN=C(N)N)NC(=O)[C@H](CCCN=C(N)N)NC(=O)[C@H](Cc1c[nH]c2ccccc12)NC(=O)[C@@H](N)CCCN=C(N)N)C(=O)O` [RWRRFWRR], the minimal inhibitory concentration (MIC) in assay [18] is ≥ 100 µM; in [19], 12.5 µM (≈ 16.5 µg/mL); in assay [20] it was 12.5 µM (≈ 16.5 µg/mL); in [21] it was 6.25 µM (≈ 8.24 µg/mL); in assay [22] it was ≥ 100 µM; against Bacillus cereus AS1.126 it was 3.13 µM (≈ 4.13 µg/mL). In addition, the minimal inhibitory concentration (MIC) in assay [23] is 6.25 µM (≈ 8.24 µg/mL); in assay [24], 6.25 µM (≈ 8.24 µg/mL); with Escherichia coli AS1.349, ≥ 50 µM; in assay [25] it was ≥ 100 µM.
In the case of `CC(=O)N[C@@H](CCCCN)C(=O)N[C@@H](CC(C)C)C(=O)N[C@@H](Cc1c[nH]c2ccccc12)C(=O)N[C@@H](CCCCN)C(=O)N[C@@H](CCCCN)C(=O)N[C@@H](Cc1c[nH]c2ccccc12)C(=O)N[C@@H](CCCCN)C(=O)N[C@@H](CCCCN)C(=O)N[C@@H](Cc1c[nH]c2ccccc12)C(=O)N[C@@H](CCCCN)C(=O)N[C@@H](CCCCN)C(N)=O` [KLWKKWKKWKK], the MIC was ≥ 100 µM in assay [1], ≥ 100 µM with Escherichia coli K91BK and 25 µM (≈ 40.7 µg/mL) in assay [2].
For the compound `CC[C@H](C)[C@H](NC(=O)[C@H](CCCN=C(N)N)NC(=O)[C@@H]1CCCN1C(=O)[C@H](Cc1cnc[nH]1)NC(=O)[C@@H]1CCCN1C(=O)[C@@H]1CCCN1C(=O)[C@H](CCCN=C(N)N)NC(=O)[C@@H]1CCCN1C(=O)[C@H](CCC(N)=O)NC(=O)[C@@H]1CCCN1C(=O)[C@@H](NC(=O)[C@H](Cc1ccc(O)cc1)NC(=O)[C@@H](NC(=O)[C@@H]1CCCN1C(=O)[C@H](CCCN=C(N)N)NC(=O)[C@H](CC(N)=O)NC(=O)[C@@H](N)CC(N)=O)C(C)C)[C@@H](C)CC)C(N)=O` [NNRPVYIPQPRPPHPRI], the MIC in [26] was determined as 15.2 µM (≈ 31.2 µg/mL); against Escherichia coli BL21AI, 1.91 µM (≈ 3.91 µg/mL).
